Several values for one entry are separate records, joined by “and”; a condition that tells them apart may be missing. Equal values may be shown once.
Key:
OCI-AML2 = assay: Half-maximal growth inhibition (GI50), OCI-AML2; format: cell-based; settings: Homo sapiens, 240 h, AML, M4, DNMT3A R635W, read-out: GI50 (nM), day 10
Protocol: Compounds A, B, C, D, and F were tested against various cell lines to probe their broad utility against cancer. Cortistatin A (CA) was also tested against the cell lines in a head to head fashion.

CAMK2B = target: T1, CAMK2B (Homo sapiens, UniProt Q13554); assay: 33PanQinase radiometric kinase assay, CAMK2B; format: biochemical
T1 construct: purchased ProQinase; host or cells: Sf9 insect cells or E. coli
Protocol: (§1) A radiometric protein kinase assay (33PanQinase Activity Assay) was used for measuring the kinase activity of the 320 protein kinases. All kinase assays were performed in 96-well FlashPlates™ from Perkin Elmer (Boston, Mass., USA) in a 50 μl reaction volume. The reaction cocktail was pipetted in 4 steps in the following order: • 1. 10 μl of non-radioactive ATP solution (in H2O) • 2. 25 μl of assay buffer/[γ-33P]-ATP mixture • 3. 5 μl of test sample in 10% DMSO • 4. 10 μl of enzyme/substrate mixture
(§2) All PKC assays (except the PKC-mu and the PKC-nu assay) additionally contained 1 mM CaCl2, 4 mM EDTA, 5 μg/ml phosphatidylserine and 1 μg/ml 1,2-dioleyl-glycerol.
The CAMKID, CAMK2A, CAMK2B, CAMK2D, CAMK4, CAMKK1, CAMKK2, DAPK2, EEF2K, MYLK, MYLK2 and MYLK3 assays additionally contained 1 μg/ml Calmodulin and 0.5 mM CaCl2). The PRKG1 and PRKG2 assays additionally contained 1 μM cGMP. The DNA-PK assay additionally contained 2.5 μg/ml DNA. The protein kinase reaction cocktails were incubated at 30° C. for 60 minutes. The reaction was stopped with 50 μl of 2% (v/v) H3PO4, plates were aspirated and washed two times with 200 μl 0.9% (w/v) NaCl. Incorporation of 33Pi (counting of “cpm”) was determined with a microplate scintillation counter (Microbeta, Wallac). All protein kinase assays were performed with a BeckmanCoulter Biomek 2000/SL robotic system.
All protein kinases provided by ProQinase were expressed in Sf9 insect cells or in E. coli as recombinant GST-fusion proteins or His-tagged proteins, either as full-length or enzymatically active fragments. All kinases were produced from human cDNAs and purified by either GSHaffinity chromatography or immobilized metal. Affinity tags were removed from a number of kinases during purification. […]
(§3) For each kinase, the median value of the cpm of three wells was defined as “low control” (n=3). This value reflects unspecific binding of radioactivity to the plate in the absence of a protein kinase but in the presence of the substrate. […] The residual activity (in %) for each compounds well was calculated by using the following formula: […]

320 protein kinases = assay: 33PanQinase radiometric kinase assay, kinome profiling; format: biochemical, human; settings: 1 μM; 320 kinases; initial test
Protocol: as §1, §2
The CAMKID, CAMK2A, CAMK2B, CAMK2D, CAMK4, CAMKK1, CAMKK2, DAPK2, EEF2K, MYLK, MYLK2 and MYLK3 assays additionally contained 1 μg/ml Calmodulin and 0.5 mM CaCl2). […] Incorporation of 33Pi (counting of “cpm”) was determined with a microplate scintillation counter (Microbeta, Wallac). […]
Kinases from external vendors CAR=Carna Biosciences Inc.; INV=Life Technologies (Invitrogen Corporation); MIL=Merck-Millipore (Millipore Corporation) were expressed, purified and quality-controlled by virtue of the vendors readings.
For each kinase, the median value of the cpm of three wells was defined as “low control” (n=3). […] The residual activity (in %) for each compounds well was calculated by using the following formula: […]

Dopamine Transporter = target: T2, Dopamine Transporter (Homo sapiens, UniProt Q01959); assay: Panlab assay, Dopamine Transporter; format: binding
T2 construct: Eurofins Panlabs
T2 sequence (Q01959 whole entry): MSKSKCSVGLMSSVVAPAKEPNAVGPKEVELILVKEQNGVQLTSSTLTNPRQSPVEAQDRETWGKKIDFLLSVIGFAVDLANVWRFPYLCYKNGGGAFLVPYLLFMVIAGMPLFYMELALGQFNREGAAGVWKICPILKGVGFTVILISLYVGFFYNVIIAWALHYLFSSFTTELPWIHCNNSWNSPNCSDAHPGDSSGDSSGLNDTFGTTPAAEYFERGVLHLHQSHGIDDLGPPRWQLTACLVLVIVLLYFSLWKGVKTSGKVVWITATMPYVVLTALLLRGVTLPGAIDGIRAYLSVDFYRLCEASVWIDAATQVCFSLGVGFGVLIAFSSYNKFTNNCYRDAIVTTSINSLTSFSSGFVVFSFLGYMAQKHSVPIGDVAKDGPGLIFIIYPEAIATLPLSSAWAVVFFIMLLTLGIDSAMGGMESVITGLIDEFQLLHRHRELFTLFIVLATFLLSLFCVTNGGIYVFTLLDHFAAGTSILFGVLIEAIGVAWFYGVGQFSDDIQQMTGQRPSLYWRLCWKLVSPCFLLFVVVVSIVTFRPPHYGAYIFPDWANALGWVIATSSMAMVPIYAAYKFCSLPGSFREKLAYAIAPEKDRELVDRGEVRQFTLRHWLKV
Protocol: (§4) Compounds A, B, C, and D were tested in Panlab assays to evaluate potential off-target activity using standard assay kits. Methods employed in these studies have been adapted from the scientific literature to maximize reliability and reproducibility.
IC50 values were determined by a non-linear, least squares regression analysis using MathIQ™ (ID Business Solutions Ltd., UK). […] Where presented, the Hill coefficient (nH), defining the slope of the competitive binding curve, was calculated using MathIQ™.

ALK = target: T3, ALK (Homo sapiens, UniProt Q9UM73); assay: 33PanQinase radiometric kinase assay, ALK; format: biochemical; settings: in vitro, read-out: percent inhibition of ALK
T3 construct: purchased ProQinase; host or cells: Sf9 insect cells or E. coli
T3 sequence (Q9UM73 19-1620): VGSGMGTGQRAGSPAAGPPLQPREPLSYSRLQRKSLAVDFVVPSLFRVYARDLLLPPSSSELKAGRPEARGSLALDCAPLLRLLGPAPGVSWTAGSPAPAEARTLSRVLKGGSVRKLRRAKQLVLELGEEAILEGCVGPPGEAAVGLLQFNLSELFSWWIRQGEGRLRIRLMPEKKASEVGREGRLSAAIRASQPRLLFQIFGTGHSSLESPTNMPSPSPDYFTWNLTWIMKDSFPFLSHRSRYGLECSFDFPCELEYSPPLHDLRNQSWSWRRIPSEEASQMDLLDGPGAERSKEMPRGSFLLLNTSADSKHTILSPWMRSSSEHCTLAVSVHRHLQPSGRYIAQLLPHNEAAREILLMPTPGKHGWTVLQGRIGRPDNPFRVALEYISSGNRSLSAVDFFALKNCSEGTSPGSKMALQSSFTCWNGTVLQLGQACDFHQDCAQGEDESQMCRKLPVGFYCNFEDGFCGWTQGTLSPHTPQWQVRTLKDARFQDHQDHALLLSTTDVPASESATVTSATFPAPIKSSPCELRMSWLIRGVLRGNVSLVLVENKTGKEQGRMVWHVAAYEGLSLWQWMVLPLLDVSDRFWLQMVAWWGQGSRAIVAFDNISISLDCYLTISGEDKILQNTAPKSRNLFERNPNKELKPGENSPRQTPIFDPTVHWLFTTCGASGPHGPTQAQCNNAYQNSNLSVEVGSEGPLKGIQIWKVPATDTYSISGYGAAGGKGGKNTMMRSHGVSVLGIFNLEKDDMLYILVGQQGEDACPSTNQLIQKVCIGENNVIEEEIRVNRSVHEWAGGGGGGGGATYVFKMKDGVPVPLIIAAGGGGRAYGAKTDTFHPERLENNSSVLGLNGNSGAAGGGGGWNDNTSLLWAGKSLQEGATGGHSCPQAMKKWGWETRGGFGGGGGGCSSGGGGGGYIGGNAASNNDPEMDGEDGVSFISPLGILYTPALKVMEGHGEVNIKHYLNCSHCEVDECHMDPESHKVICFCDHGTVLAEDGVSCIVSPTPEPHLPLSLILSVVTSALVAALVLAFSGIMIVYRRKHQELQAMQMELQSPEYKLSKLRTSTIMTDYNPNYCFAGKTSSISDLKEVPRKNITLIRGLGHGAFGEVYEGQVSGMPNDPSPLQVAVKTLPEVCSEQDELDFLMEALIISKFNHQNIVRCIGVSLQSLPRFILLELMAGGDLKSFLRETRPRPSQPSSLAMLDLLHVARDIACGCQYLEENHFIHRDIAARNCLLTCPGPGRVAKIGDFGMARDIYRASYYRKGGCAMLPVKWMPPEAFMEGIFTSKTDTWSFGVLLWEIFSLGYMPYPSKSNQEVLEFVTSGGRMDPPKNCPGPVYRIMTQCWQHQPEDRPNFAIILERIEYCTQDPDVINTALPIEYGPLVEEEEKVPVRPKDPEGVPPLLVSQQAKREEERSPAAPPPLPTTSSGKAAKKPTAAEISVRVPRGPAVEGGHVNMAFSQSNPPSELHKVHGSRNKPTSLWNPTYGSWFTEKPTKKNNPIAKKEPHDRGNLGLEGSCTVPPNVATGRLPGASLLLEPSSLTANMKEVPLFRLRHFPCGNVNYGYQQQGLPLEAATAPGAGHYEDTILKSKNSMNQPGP
Protocol: as §1, §2
The CAMKID, CAMK2A, CAMK2B, CAMK2D, CAMK4, CAMKK1, CAMKK2, DAPK2, EEF2K, MYLK, MYLK2 and MYLK3 assays additionally contained 1 μg/ml Calmodulin and 0.5 mM CaCl2). The PRKG1 and PRKG2 assays additionally contained 1 μM cGMP. The DNA-PK assay additionally contained 2.5 μg/ml DNA. […] Incorporation of 33Pi (counting of “cpm”) was determined with a microplate scintillation counter (Microbeta, Wallac). […]
as §3

Adenosine Transporter = target: T4, Adenosine Transporter (Cavia porcellus, UniProt H0V4R7); assay: Panlab assay, Adenosine Transporter; format: binding
T4 sequence (H0V4R7 1-461): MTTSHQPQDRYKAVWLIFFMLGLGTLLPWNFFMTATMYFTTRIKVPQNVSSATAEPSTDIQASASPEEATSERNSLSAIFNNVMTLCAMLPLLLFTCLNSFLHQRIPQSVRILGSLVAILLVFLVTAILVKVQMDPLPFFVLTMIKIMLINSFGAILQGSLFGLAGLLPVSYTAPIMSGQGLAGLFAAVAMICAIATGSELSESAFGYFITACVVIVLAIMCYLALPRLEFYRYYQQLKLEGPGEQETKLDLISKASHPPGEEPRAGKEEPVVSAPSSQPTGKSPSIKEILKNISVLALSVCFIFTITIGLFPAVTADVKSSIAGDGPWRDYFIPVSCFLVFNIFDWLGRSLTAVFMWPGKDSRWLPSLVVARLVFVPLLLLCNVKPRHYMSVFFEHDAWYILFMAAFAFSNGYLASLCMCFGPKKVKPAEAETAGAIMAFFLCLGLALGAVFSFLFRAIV
Protocol: as §4, with “reproducibility. Reference standards were run as an integral part of each assay to ensure the validity of the results obtained.” for “reproducibility.”
IC50 values were determined by a non-linear, least squares regression analysis using MathIQ™ (ID Business Solutions Ltd., UK). Where inhibition constants (Ki) are presented, the Ki values were calculated using the equation of Cheng and Prusoff (Cheng, Y., Prusoff, W. H., Biochem. Pharmacol. 22:3099-3108, 1973) using the observed IC50 of the tested compound, the concentration of radioligand employed in the assay, and the historical values for the KD of the ligand (obtained experimentally at Eurofins Panlabs, Inc.). Where presented, the Hill coefficient (nH), defining the slope of the competitive binding curve, was calculated using MathIQ™.

C[C@]12CC=C3C=C4CC[C@@H](O)C[C@]45CC[C@]3(O5)[C@@H]1CC[C@@H]2c1ccc2ccncc2c1 [Compound A, (3S,3aR,9R,10aR,12aS,12bR)-3-(isoquinolin-7-yl)-3a-methyl-1,2,3,3a,4,7,8,9,10,11,12,12b-dodecahydro-10a,12a-epoxybenzo[4,5]cyclohepta[1,2-e]inden-9-ol]
GI50 (OCI-AML2): 4 nM
inhibition at 1 µM (CAMK2B; 1 μM, 2 replicates, read-out: average percent inhibition of CAMK2B): > 50%
percent inhibition of CAMK2B, replicates (CAMK2B; 1 μM, single replicates): 36% and 79%
inhibition of CAMK2B upon retesting (CAMK2B; up to 10 μM): not inhibited
number of kinases with an average of >50% inhibition (320 protein kinases): 5
IC50 (Dopamine Transporter): 4.9 µM
nH (Hill coefficient), Dopamine Transporter (Dopamine Transporter): 0.97
Ki (Dopamine Transporter; Cheng and Prusoff): 3.89 µM
inhibition at 1 µM (ALK): < 10%
IC50 (Adenosine Transporter): 3.61 µM
nH (Hill coefficient), Adenosine Transporter (Adenosine Transporter): 1.30
Ki (Adenosine Transporter; Cheng and Prusoff): 1.23 µM
